Experimental data reported in PubChem BioAssay (NCI).
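Exposure lasted 48 hours, with cells grown in 96-well plates and compounds tested at five concentrations. TGI denotes the concentration required for complete inhibition of growth.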

What was measured:
Assay in all cases: NCI anticancer screen, dose series, 48 h
786-0 renal = test system: 786-0 renal
A498 renal = test system: A498 renal
A549 NSCLC = test system: A549 NSCLC
ACHN renal = test system: ACHN renal
BT-549 breast = test system: BT-549 breast
CAKI-1 renal = test system: CAKI-1 renal
CCRF-CEM leukemia = test system: CCRF-CEM leukemia
COLO 205 colon = test system: COLO 205 colon
DU-145 prostate = test system: DU-145 prostate
EKVX NSCLC = test system: EKVX NSCLC
HCC-2998 colon = test system: HCC-2998 colon
HCT-116 colon = test system: HCT-116 colon
HCT-15 colon = test system: HCT-15 colon
HL-60(TB) leukemia = test system: HL-60(TB) leukemia
HOP-62 NSCLC = test system: HOP-62 NSCLC
HOP-92 NSCLC = test system: HOP-92 NSCLC
HS 578T breast = test system: HS 578T breast
HT29 colon = test system: HT29 colon
IGROV1 ovarian = test system: IGROV1 ovarian
K-562 leukemia = test system: K-562 leukemia
KM12 colon = test system: KM12 colon
LOX IMVI melanoma = test system: LOX IMVI melanoma
M14 melanoma = test system: M14 melanoma
MALME-3M melanoma = test system: MALME-3M melanoma
MCF7 breast = test system: MCF7 breast
MDA-MB-231 breast = test system: MDA-MB-231 breast
MDA-MB-435 = test system: MDA-MB-435
MDA-N = test system: MDA-N
MOLT-4 leukemia = test system: MOLT-4 leukemia
NCI-H226 lung = test system: NCI-H226 lung
NCI-H23 lung = test system: NCI-H23 lung
NCI-H460 lung = test system: NCI-H460 lung
NCI-H522 lung = test system: NCI-H522 lung
NCI/ADR-RES ovarian = test system: NCI/ADR-RES ovarian
OVCAR-3 ovarian = test system: OVCAR-3 ovarian
OVCAR-4 ovarian = test system: OVCAR-4 ovarian
OVCAR-5 ovarian = test system: OVCAR-5 ovarian
OVCAR-8 ovarian = test system: OVCAR-8 ovarian
PC-3 prostate = test system: PC-3 prostate
RPMI-8226 leukemia = test system: RPMI-8226 leukemia
RXF 393 renal = test system: RXF 393 renal
SF-268 CNS = test system: SF-268 CNS
SF-295 CNS = test system: SF-295 CNS
SF-539 CNS = test system: SF-539 CNS
SK-MEL-2 melanoma = test system: SK-MEL-2 melanoma
SK-MEL-28 melanoma = test system: SK-MEL-28 melanoma
SK-MEL-5 melanoma = test system: SK-MEL-5 melanoma
SK-OV-3 ovarian = test system: SK-OV-3 ovarian
SN12C renal = test system: SN12C renal
SNB-19 CNS = test system: SNB-19 CNS
SNB-75 CNS = test system: SNB-75 CNS
SR leukemia = test system: SR leukemia
SW-620 colon = test system: SW-620 colon
T-47D breast = test system: T-47D breast
TK-10 renal = test system: TK-10 renal
U251 CNS = test system: U251 CNS
UACC-257 melanoma = test system: UACC-257 melanoma
UACC-62 melanoma = test system: UACC-62 melanoma
UO-31 renal = test system: UO-31 renal

Measured: TGI

O=C1C=CC(=O)c2c1ccc1c3ccccc3n(CCCCCCCCCCCCn3c4ccccc4c4ccc5c(c43)C(=O)C=CC5=O)c21
> 46.4 µM: HCC-2998 colon
74.1 µM: CCRF-CEM leukemia
> 90.5 µM: MOLT-4 leukemia
> 91.3 µM: HL-60(TB) leukemia
> 100 µM: all other assays above
